Measured values from patent US12186377B2, “Modulation of oxidative stress and amino acid metabolism for the treatment or prevention of diseases and disorders” (NEW YORK UNIVERSITY, priority 2019, dated 2025).
Entries after “also recorded” stand apart in the source; their conditions may differ. Counter-ions that a name gives are not always drawn.

What was measured:
[1] = system: wildtype and Keap1 mutant Kras^G12D/+;p53^−/− lung adenocarcinoma cell lines; assay: Cell proliferation assay (crystal violet), drug or amino acid deprived media; type: cell-based, mouse; details: for rescue of cell growth under serine deprived conditions by supplementation: 0.5 mM NAC, 50 μM Trolox, 3 mM formate, 16 μM thymidine, FIG. 7A; for sensitivity of Keap1 wildtype cells to NEAA depletion under oxidant treatment: wildtype cells treated with oxidative stress agents
Protocol: (§1) For cell proliferation assays conducted under different drug or media conditions as indicated, cells growing in DMEM were trypsinized, counted and plated into 12 well plate dishes (BD/Falcon) in 1 mL of RPMI media. […] For deprivation experiments, cells were washed with PBS and media was replaced with 1 mL of complete RPMI or RPMI lacking indicated amino acid and supplemented with 10% dialyzed FBS and cells were re-treated with indicated drugs. RPMI was prepared from a powder mix without amino acids (US Biological) according to manufacturer's instructions. All other amino acids besides those indicated were added to the RPMI mixture in the same concentrations present in RPMI-1640 formulation (Cellgro, Corning). Proliferation experiments were carried out for 5 days post drug treatment and collected by staining. Cells were stained with a 0.5% crystal violet (Fisher) solution in 20% methanol. Plates were then washed, dried, and crystal violet was eluted in 400 μL of 10% acetic acid.

[2] = system: Keap1 mutant subcutaneous tumors; assay: Subcutaneous tumor growth, Keap1 mutant tumors; type: in vivo, C57B6 mice
Protocol: (§2) 5×10^5 cells were implanted subcutaneously into C57B6 mice. Tumor volume was measured by caliper and volume was calculated (Length×Width^2×0.5). After tumor establishment phase (tumor volume ˜50 mm^3), animals were randomized and assigned to a treatment group. Animals either received an amino acid control diet, diet lacking both serine and glycine, or a diet lacking asparagine (Envigo and TestDiet), 200 mg/kg CB-839 or vehicle (Calithera) twice daily administered through oral gavage as previously described (Davidson et al., 2016, Cell Metab 23, 517-528), 60 U of L-Asparaginase (Abcam) or vehicle once daily administered through intraperitoneal injection as before (Knott et al., 2018, Nature 554, 378-381) or some treatment combination as indicated.

[3] = system: wildtype vs Keap1 mutant cells; assay: GC/MS analysis of polar metabolites and stable isotope tracing in cells; type: cell-based, mouse; details: for serine and glycine synthesis from [U^13C]-D glucose: serine depleted conditions, 250 nM CB-839 or 6 mM glutamate, FIG. 7E
Protocol: For analysis of cells, 1×10^5 cells were seeded in 1 mL of RPMI-1640 in 12 well plates. […] Media was then replaced with fresh RPMI lacking serine or asparagine where indicated and supplement with 10% FBS. For tracing experiments media contained 11 mM [U^13C]-D-glucose, 2 mM [U^13C]-L-glutamine, 2 mM [α^15N]-L-glutamine, or 285 μM [U^13C]-L-serine (Cambridge Isotope Laboratory). Cells were treated with 250 nM CB-839 and cultured for 1-3 hours. Cells were washed 2× in ice cold saline and then collected by scraping in 250 μL of 80% (v/v) of ice cold methanol containing 1.4 μg/mL norvaline (Sigma Aldrich). Samples were vortexed for 10 min at 4° C. and then centrifuged at max speed for 5 minutes. Supernatant was transferred to fresh tubes and then dried in a speed vac. For analysis of mouse plasma, whole blood was collected at the time of sacrifice by a retro-orbital bleed with heparin coated capillary tubes (Fisher) into EDTA containing microcentrifuge tubes. Whole blood was centrifuged for 5 minutes at 1600 g. Cleared plasma was transferred to fresh tubes and 4 μL of plasma was then aliquoted and used for analysis. 80% (v/v) methanol containing 1.4 μg/mL norvaline was added to plasma and samples were then dried in a speed vac. […] After derivatization, samples were analyzed by GC-MS using an HP-5MS column (Agilent Technologies) in an Agilent Intuvo gas chromatograph coupled to an Agilent 5997B mass spectrometer. […]
The MS system operated under electron impact ionization at 70 eV and the MS source and quadrupole were held at 230° C. and 150° C. respectively the detector was used in scanning mode, and the scanned ion range was 10-650 m/z. Mass isotopomer distributions were determined by integrating the appropriate ion fragments for each metabolite (Lewis et al., 2014, Molecular cell 55, 253-263) using MATLAB (Mathworks) and an algorithm adapted from Fernandez and colleagues (Fernandez et al., 1996, Journal of mass spectrometry: JMS 31, 255-262) that corrects for natural abundance.

[4] = system: wildtype subcutaneous tumors; assay: Subcutaneous tumor growth, wildtype tumors; type: in vivo, C57B6 mice
Protocol: as §2

[5] = system: wildtype vs Keap1 mutant Kras^G12D/+;p53^−/− lung adenocarcinoma cells; details: previously shown (Romero 2017; Sayin 2017); cited from earlier work
[6] = system: wildtype vs Keap1 mutant Kras^G12D/+;p53^−/− lung adenocarcinoma cells; assay: Cell viability assay (cell titer glo); type: cell-based, mouse
Protocol: For cell viability assays cells were plated in a white, opaque 96-well plate with clear bottom at a density of 1000 cells/well in RPMI or RPMI with modified amino acid content. After attachment, CB-839 (Selleck) or L-Asparaginase (AbCam) were added at the indicated concentrations. After 3 days, cell viability in the presence of all compounds was assessed by cell titer glo (Promega).

[7] = system: KPKJ Vector (Keap1 KO) cells transduced with sgG6pd and sgPGD; assay: Colony formation assay, metabolite rescue of G6PD KO / PGD KO cells; type: cell-based, mouse; details: FIG. 18
Source text: Colony formation assay of KPKJ Vector (Keap1 KO) cells transduced with sgTom, sgG6pd and sgPGD, and rescued with several metabolites.

[8] = GC/MS plasma amino acid levels in tumor-bearing mice; type: in vivo; details: L-asparaginase vs asparagine deficient diet, FIG. 11A
Protocol: For analysis of cells, 1×10^5 cells were seeded in 1 mL of RPMI-1640 in 12 well plates. […] Media was then replaced with fresh RPMI lacking serine or asparagine where indicated and supplement with 10% FBS. For tracing experiments media contained 11 mM [U^13C]-D-glucose, 2 mM [U^13C]-L-glutamine, 2 mM [α^15N]-L-glutamine, or 285 μM [U^13C]-L-serine (Cambridge Isotope Laboratory). Cells were treated with 250 nM CB-839 and cultured for 1-3 hours. Cells were washed 2× in ice cold saline and then collected by scraping in 250 μL of 80% (v/v) of ice cold methanol containing 1.4 μg/mL norvaline (Sigma Aldrich). Samples were vortexed for 10 min at 4° C. and then centrifuged at max speed for 5 minutes. Supernatant was transferred to fresh tubes and then dried in a speed vac. For analysis of mouse plasma, whole blood was collected at the time of sacrifice by a retro-orbital bleed with heparin coated capillary tubes (Fisher) into EDTA containing microcentrifuge tubes. Whole blood was centrifuged for 5 minutes at 1600 g. Cleared plasma was transferred to fresh tubes and 4 μL of plasma was then aliquoted and used for analysis. […] After derivatization, samples were analyzed by GC-MS using an HP-5MS column (Agilent Technologies) in an Agilent Intuvo gas chromatograph coupled to an Agilent 5997B mass spectrometer. […]

KPKJ wt and KPKJ V cells = assay: Cell ROS level, DCFCA assay (FACS); type: cell-based, mouse; details: positive control
Protocol: TET+ stands for 3 days treatment of 1 μg/ml doxycycline for inducing shRNA expression. G6PD knockdown induces more ROS in Keap1 wildtype cells. Keap1 mutants show lower cell ROS. ROS level was measured by DCFCA assay. G6PD KO induces accumulation of ROS in Keap1 wildtype cells. Measured by FACS (DCFCA assay.) TET treatment 4 day before measuring. H2O2 positive control is about 200-fold increase.

KP or KPK cells = assay: Cell viability with exogenous heme/hemin after Alas1 knock-down/out; type: cell-based, mouse
Source text: FIG. 36A depicts the cell viability of KP or KPK cells with guide RNAs against Alas1 or control in the presence of increasing amounts of Heme/Hemin.
FIG. 37A depicts a western blot validation of control or Alas1 targeting shRNAs in KP/KPK cells. FIG. 37B depicts the relative viability of KP/KPK cells in response to doxycycline inducible shRNA knockdown of Alas1.

KPK cells = assay: Western blot of Alas1 and Hmox1 with exogenous heme/hemin; type: cell-based, mouse; details: increasing amounts of exogenous heme/hemin, FIG. 36B
[9] = system: murine Kras^G12D/+;p53^−/− pancreatic ductal adenocarcinoma cell line; assay: Proliferation / viability of pancreatic cancer cell line; type: cell-based, mouse; details: pre-treated with 1 μM KI696; 0.036 U/mL L-asparaginase 3 days, FIG. 5C, 5D
Protocol: RPMI was prepared from a powder mix without amino acids (US Biological) according to manufacturer's instructions. All other amino acids besides those indicated were added to the RPMI mixture in the same concentrations present in RPMI-1640 formulation (Cellgro, Corning). Proliferation experiments were carried out for 5 days post drug treatment and collected by staining. Cells were stained with a 0.5% crystal violet (Fisher) solution in 20% methanol. Plates were then washed, dried, and crystal violet was eluted in 400 μL of 10% acetic acid.

[10] = system: LKR (Kras^G12D/+;p53^+/+) cell lines; assay: Cell proliferation assay in media lacking serine or asparagine, LKR lines; type: cell-based, mouse; details: pre-treated with KI696 (11 μM printed elsewhere in the source), FIG. 5B
Protocol: as §1

[11] = Davies et al., 2016; cited from earlier work
[12] = system: cell lines with different genetic status of Keap1; assay: Relative viability in response to succinylacetone; type: cell-based; details: dominant negative Keap1 alleles vs Keap1 mutant cells, FIG. 35B
Source text: FIG. 35A depicts a western blot validation of various Keap1 cDNA constructs including WT and multiple mutants found in LUAD. FIG. 35B depicts the relative viability of cell lines with different genetic status of Keap1 in response to different concentrations of succinylacetone, an inhibitor of Alas1.

[13] = 60 U once daily intraperitoneal, FIG. 9B

O=CO [formate]
rescue of cell growth under serine deprived conditions by supplementation ([1]; Keap1 mutant cells): complete rescue of cell growth

O=C(Cc1cccc(OC(F)(F)F)c1)Nc1ccc(CCCCc2nnc(NC(=O)Cc3ccccn3)s2)nn1 [CB-839]
growth of Keap1 mutant tumors, CB-839 alone ([2]; 200 mg/kg twice daily oral gavage, FIG. 9E): sensitive | growth of Keap1 mutant tumors, CB-839 with −SG diet ([2]; compared to either monotherapy, FIG. 9E): further reduced Keap1 mutant tumor growth | serine and glycine synthesis from [U^13C]-D glucose [3]: decrease in both serine and glycine synthesis | growth of wildtype tumors, CB-839 alone ([4]; 200 mg/kg twice daily oral gavage, FIG. 9F): no effect on wildtype tumor growth | growth of wildtype tumors, CB-839 with −SG diet ([4]; diet lacking serine and glycine, FIG. 9F): strong synergistic effect and significantly reduced wildtype tumor growth; also recorded: strongly sensitizes Keap1 wildtype tumors to dietary restriction of serine and glycine | sensitivity of Keap1 mutant cells to CB-839 [5]: highly sensitive | effect of very low doses of CB-839 alone on cell growth ([6]; CB-839 alone): do not affect cell growth | sensitivity to very low doses of CB-839 with L-asparaginase ([6]; Keap1 mutant cells, 0.1 U/mL L-asparaginase, FIG. 6I): increased sensitivity | sensitivity to very low doses of CB-839 in reduced serine ([6]; Keap1 mutant cells, serine at 10% of normal concentration, FIG. 6J): increased sensitivity

CC(=O)N[C@@H](CS)C(=O)O [NAC, N-acetyl-L-cysteine]
rescue of cell growth under serine deprived conditions by supplementation ([1]; Keap1 mutant cells): did not rescue cell growth | G6PD KO rescue (colony formation) [7]: No rescue

L-asparaginase
growth of Keap1 mutant tumors, L-asparaginase [2, 13]: blunted growth | growth of Keap1 mutant tumors, L-asparaginase alone or with asparagine free diet ([2]; FIG. 9D): strongly blunts the growth | growth of wildtype tumors, L-asparaginase [4, 13]: not wildtype tumors | plasma levels of asparagine [8]: more effective at reducing plasma levels of asparagine than the asparagine diet | relative viability on L-asparaginase treatment ([6]; Keap1 mutant vs wildtype cells, RPMI, 3 days, FIG. 1D): increased sensitivity

OO [H2O2]
cell ROS level increase (KPKJ wt and KPKJ V cells): about 200 fold

C[C@H](N)C(=O)O [alanine]
proliferation on alanine supplementation ([1]; Keap1 mutant cells, RPMI 10% dialyzed FBS, FIG. 2D): increase in cancer cell proliferation

C=CC1=C(C)c2cc3[n-]c(cc4[n-]c(cc5nc(cc1n2)C(C)=C5C=C)c(C)c4CCC(=O)O)c(CCC(=O)O)c3C.[Fe+2] [heme/hemin]
rescue of growth defects after shRNA knockdown of Alas1 (KP or KPK cells; KP/KPK cells, doxycycline inducible shRNA, FIG. 37B): completely rescues any growth defects | exogenous heme needed to rescue growth (KP or KPK cells; Keap1-mutant (KPK) vs KP cells with guide RNAs against Alas1, FIG. 36A): require higher levels of exogenous heme to rescue growth | Alas1 protein level (KPK cells): decrease Alas1 | Hmox1 protein level (KPK cells): increase Hmox1

COc1cc([C@@H](CC(=O)O)c2ccc(C)c(CN3C[C@@H](C)Oc4ccccc4S3(=O)=O)c2)cc2nnn(C)c12 [KI696]
growth upon serine deprivation or L-asparaginase treatment after Nrf2 activation [9]: robust growth suppression | proliferation in media lacking serine or asparagine, p53 wildtype LKR lines [10]: growth suppression | pharmacokinetics [11]: prevent its efficient use in vivo

CCCCS(=N)(=O)CCC(N)C(=O)O [BSO, L-buthionine-sulfoximine]
sensitivity of Keap1 wildtype cells to NEAA depletion under oxidant treatment [1]: sensitized to NEAA depletion

Cc1cn([C@H]2C[C@H](O)[C@@H](CO)O2)c(=O)[nH]c1=O [thymidine]
rescue of cell growth under serine deprived conditions by supplementation ([1]; Keap1 mutant cells): complete rescue of cell growth

CC(=O)OC[C@H]1O[C@@H]([S-])[C@H](OC(C)=O)[C@@H](OC(C)=O)[C@@H]1OC(C)=O.CCP(CC)CC.[Au+] [Auranofin, 3,4,5-triacetyloxy-6-(acetyloxymethyl) oxane-2-thiolate; triethylphosphanium]
sensitivity of Keap1 wildtype cells to NEAA depletion under oxidant treatment [1]: sensitized to NEAA depletion

CC(=O)CC(=O)CCC(=O)O [succinylacetone, 4,6-Dioxoheptanoic acid]
relative viability in response to succinylacetone [12]: further sensitize Keap1 mutant cells to heme synthesis inhibition

Cc1c(C)c2c(c(C)c1O)CCC(C)(C(=O)O)O2 (stereo not shown) [Trolox]
rescue of cell growth under serine deprived conditions by supplementation ([1]; Keap1 mutant cells): did not rescue cell growth | G6PD KO rescue (colony formation) [7]: No rescue

COC(=O)/C=C/C(=O)OC [DMF, di-methyl fumarate]
sensitivity of Keap1 wildtype cells to NEAA depletion under oxidant treatment [1]: sensitized to NEAA depletion

N[C@@H](CCC(=O)O)C(=O)O [glutamate]
intracellular glutamate levels ([3]; Keap1 mutant cells, 500 nM Erastin or 6 mM glutamate, FIG. 6B, 6C): significantly increased intracellular glutamate levels | serine and glycine synthesis from [U^13C]-D glucose [3]: increase in both serine and glycine synthesis | G6PD KO rescue (colony formation) [7]: can rescue G6PD KO cells; also recorded: Completely rescue

O=C(O)CCC(=O)C(=O)O [a-KG]
G6PD KO rescue (colony formation) [7]: can rescue G6PD KO cells; also recorded: Completely rescue
